Source: patent US7741342B2, “Water-soluble thalidomine derivatives” (priority 2003, dated 2010)
Read-outs that look alike come from different tables or passages of the source.

Legend:
[1] = aqueous solution stability; conditions: hydrochloride salt
[2] = buffer

## CCN(CC)CC(=O)N[C@H](C(=O)OCN1C(=O)CCC(N2C(=O)c3ccccc3C2=O)C1=O)C(C)C.Cl (stereo partly drawn) [Example 1, (S)-2-(diethylaminoacetamido)-3-methyl butyric acid 2-(1-(hydroxymethyl)-2,6-dioxopiperidin-3-yl)isoindoline-1,3-dione ester hydrochloride]
[1]
  aqueous solution stability t1/2: > 8 h

## CC(C)[C@H](NC(=O)CN(C)C)C(=O)OCN1C(=O)CCC(N2C(=O)c3ccccc3C2=O)C1=O.Cl (stereo partly drawn) [Example 2, (S)-2-(dimethylaminoacetamido)-3-methyl butyric acid 2-(1-(hydroxymethyl)-2,6-dioxopiperidin-3-yl)isoindoline-1,3-dione ester hydrochloride]
[1]
  aqueous solution stability t1/2: > 8 h

## CC(C)[C@H](NC(=O)CN1CCCCC1)C(=O)OCN1C(=O)CCC(N2C(=O)c3ccccc3C2=O)C1=O.Cl (stereo partly drawn) [Example 3, (S)-2-(1-piperidinylacetamido)-3-methyl butyric acid 2-(1-(hydroxymethyl)-2,6-dioxopiperidin-3-yl)isoindoline-1,3-dione ester hydrochloride]
[1]
  aqueous solution stability t1/2: > 8 h

## CCN(CC)CC(=O)OCN1C(=O)CCC(N2C(=O)c3ccccc3C2=O)C1=O.Cl (centres unmarked) [Example 4, Diethylaminoacetic acid 2-(1-(hydroxymethyl)-2,6-dioxopiperidin-3-yl)isoindoline-1,3-dione ester hydrochloride]
[2]
  aqueous solution stability t1/2: > 8 h

## CN(C)CC(=O)OCN1C(=O)CCC(N2C(=O)c3ccccc3C2=O)C1=O.Cl (centres unmarked) [Example 5, Dimethylaminoacetic acid 2-(1-(hydroxymethyl)-2,6-dioxopiperidin-3-yl)isoindoline-1,3-dione ester hydrochloride salt]
[2]
  aqueous solution stability t1/2: > 4 h
